Where two headings read alike, the source gives them in different places.
Legend:
5-HT2C [1] = target: T1, 5-HT2C (Homo sapiens (Human), UniProt P28335); assay: IP assay (Eurofins, IP1 HTRF), HEK293 cells; type: cell-based; details: for 5-HT2C Rmax (%): % of Rmax of 5-HT
Target sequence in this assay (P28335 whole entry, looked up): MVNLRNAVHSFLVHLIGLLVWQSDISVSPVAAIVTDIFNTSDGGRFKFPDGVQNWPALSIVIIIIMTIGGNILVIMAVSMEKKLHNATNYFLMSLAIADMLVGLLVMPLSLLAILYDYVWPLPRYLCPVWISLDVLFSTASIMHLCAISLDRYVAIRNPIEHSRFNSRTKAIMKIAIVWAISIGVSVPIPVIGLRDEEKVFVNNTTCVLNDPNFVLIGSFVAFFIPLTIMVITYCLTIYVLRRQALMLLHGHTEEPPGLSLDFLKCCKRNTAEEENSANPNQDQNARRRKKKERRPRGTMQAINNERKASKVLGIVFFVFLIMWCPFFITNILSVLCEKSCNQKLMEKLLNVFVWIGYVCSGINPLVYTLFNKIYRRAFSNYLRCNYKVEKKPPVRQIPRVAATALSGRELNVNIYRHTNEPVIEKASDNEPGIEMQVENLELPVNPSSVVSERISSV
Description: (§1) The agonist properties of the compounds were characterized at HEK293 cell lines expressing the human 5-HT2A, human 5-HT2B or human 5-HT2C receptors in an IP assay essentially as previously described.^19 The testing was performed by Eurofins. In the assay, the agonist activity of the compound at the receptors is investigated by measuring its effect on IP1 production in the cell using the Homogeneous Time Resolved Fluorescence (HTRF) detection method. […] Following incubation, the cells were lysed, and the fluorescence acceptor (D2-labeled IP1) and fluorescence donor (anti-IP1 antibody labeled with europium cryptate) were added. […] The test compounds were characterized in eight different concentrations in duplicate at each of the three cell lines.

5-HT2C [2] = target: T1, 5-HT2C; assay: Ca2+/Fluo-4 assay, stable h5-HT2C-HEK293 cell line; type: cell-based; details: for EC50: agonist potency, n = 3-4;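 for all read-outs here: Agonist-induced intracellular Ca2+ rise read by Fluo-4 fluorescence in HEK293 cells stably expressing the human 5-HT2C receptor, each compound run in duplicate on three or more occasions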
Target sequence in this assay (P28335 whole entry, looked up): as above
Description: The functional properties of the compounds were characterised at stable HEK293 cell lines stably expressing the human 5-HT2A receptor or human 5-HT2C receptor in the Ca^2+/Fluo-4 assay essentially as previously described.^10 Briefly, the cells were split into poly-D-lysine-coated black 96-well plates with clear bottoms (6×10^4 cells/well). The following day the culture medium was aspirated and the cells were incubated in 50 μl assay buffer [Hanks Buffered Saline Solution containing 20 mM HEPES, 1 mM CaCl2, 1 mM MgCl2, 2.5 mM probenecid, pH 7.4] supplemented with 6 mM Fluo-4/AM at 37° C. for 1 hour. Next, the buffer was aspirated, the cells were washed once with 100 μl assay buffer, and then 100 μl assay buffer was added to the cells (in the antagonist experiments the compound was added at this point). […] The compounds were characterized in duplicate at least three times at each cell line.

human 5-HT2A [3] = target: T2, human 5-HT2A (Homo sapiens (Human), UniProt P28223); assay: cell-based; type: cell-based; details: for 5-HT2A Rmax ± S.E.M: % of the Rmax of 5-HT; for agonist response at 5-HT2A / Selectivity EC50 5-HT2C/EC50 5-HT2A: Ca2+/Fluo-4 assay; for agonist response at 5-HT2A: concentrations up to 50 μM; for Selectivity EC50 5-HT2C/EC50 5-HT2A: bounds are conservative estimates
5-HT2B [4] = target: T3, 5-HT2B (Homo sapiens (Human), UniProt P41595); assay: radioligand competition binding assay (Psychiatric Drug Screening Program)
Target sequence in this assay (P41595 whole entry, looked up, species assumed): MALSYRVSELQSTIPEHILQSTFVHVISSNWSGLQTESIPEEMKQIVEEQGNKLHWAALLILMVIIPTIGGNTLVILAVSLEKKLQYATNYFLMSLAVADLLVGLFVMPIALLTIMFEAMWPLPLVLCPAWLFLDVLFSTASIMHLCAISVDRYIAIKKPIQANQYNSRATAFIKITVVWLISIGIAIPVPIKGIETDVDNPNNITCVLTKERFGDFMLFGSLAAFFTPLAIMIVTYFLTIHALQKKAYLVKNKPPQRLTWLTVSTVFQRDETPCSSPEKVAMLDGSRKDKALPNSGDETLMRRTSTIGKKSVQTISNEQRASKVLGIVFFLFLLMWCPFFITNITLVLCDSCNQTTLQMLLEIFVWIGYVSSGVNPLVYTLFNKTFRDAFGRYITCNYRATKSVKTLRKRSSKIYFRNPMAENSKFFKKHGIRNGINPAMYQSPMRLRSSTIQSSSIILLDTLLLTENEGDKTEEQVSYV

a2A = a2A (Homo sapiens (Human), UniProt P08913); assay: as above; details: read-out: Ki (nM) a2A
5-HT7 = 5-HT7 (Homo sapiens (Human), UniProt P34969); assay: as above
a2B = a2B (Homo sapiens (Human), UniProt P18089); assay: as above
5-HT1e = 5-HT1e (Homo sapiens (Human), UniProt P28566); assay: as above
human 5-HT2A [5] = target: T2, human 5-HT2A; assay: cell-based; type: cell-based; details: IP assay; for 5-HT2A Rmax: % of Rmax of 5-HT; for agonist response at 5-HT2A: concentrations up to 100 μM; for EC50: duplicate determinations
5-HT2B [6] = target: T3, 5-HT2B; assay: fluorescence-based Ca2+ imaging assay (Eurofins), stable h5-HT2B cell line
Target sequence in this assay (P41595 whole entry): as the sequence (P41595 whole entry, looked up, species assumed) above
Description: Briefly, the cell line was expanded from a freezer stock according to standard procedures. […] Cells were loaded with dye prior to testing. Media was aspirated from cells and replaced with 20 μL Dye Loading Buffer, and the cells were incubated for 30-60 minutes at 37° C. After dye loading, cells were removed from the incubator and 10 μL HBSS/20 mM HEPES was added. Cells were incubated for 30 minutes at room temperature in the dark to equilibrate plate temperature. Intermediate dilution of sample stocks was performed to generate 4× sample in assay buffer. Compound agonist activity was measured on a FLIPR Tetra (MDS). Calcium mobilization was monitored for 2 minutes and 10 μL 4× sample in HBSS/20 mM HEPES was added to the cells 5 seconds into the assay.

5-HT1A = 5-HT1A (Homo sapiens (Human), UniProt P08908); assay: radioligand competition binding assay (Psychiatric Drug Screening Program)
5-HT1D = 5-HT1D (Homo sapiens (Human), UniProt P28221); assay: as above; details: read-out: Ki (nM) 5-HT1D
a1A = a1A (Homo sapiens (Human), UniProt P35348); assay: as above; details: read-out: Ki (nM) a1A
a2C = a2C (Homo sapiens (Human), UniProt P18825); assay: as above
a1B = a1B (Homo sapiens (Human), UniProt P35368); assay: as above; details: read-out: Ki (nM) a1B
5-HT2C [7] = target: T1, 5-HT2C; assay: biochemical; type: binding
5-HT6 = 5-HT6 (Homo sapiens (Human), UniProt P50406); assay: radioligand competition binding assay (Psychiatric Drug Screening Program)
5-HT2A over 5-HT2C = details: cited from earlier work
5-HT2B [8] = target: T3, 5-HT2B; assay: IP assay (Eurofins, IP1 HTRF), HEK293 cells; type: cell-based; details: for EC50: duplicate determinations; for 5-HT2B Rmax: % of Rmax of 5-HT;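 for 5-HT2B EC50 (nM): agonist effect read as cellular IP1 production by HTRF using a europium cryptate anti-IP1 antibody donor and D2-labeled IP1 acceptor, eight compound concentrations in each cell line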;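 for 5-HT2B Rmax: agonist effect read as cellular IP1 production by HTRF using a europium cryptate anti-IP1 antibody donor and D2-labeled IP1 acceptor, eight compound concentrations in each cell line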;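 for 5-HT2B agonist activity (n.a./w.a.): agonist effect read as cellular IP1 production by HTRF using a europium cryptate anti-IP1 antibody donor and D2-labeled IP1 acceptor, eight compound concentrations in each cell line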
Target sequence in this assay (P41595 whole entry, looked up): as the sequence (P41595 whole entry, looked up, species assumed) above
Description: as §1

[9] = tested on: Flinders Sensitive Line (FSL) rats; assay: forced swim test, Flinders Sensitive Line (FSL) model; type: in vivo; details: one hour after i.p. administration, vs vehicle-treated FSL rats, FIG. 3
Description: Male Flinders line rats (Flinders Sensitive Line (FSL) and their control Flinders Resistant Line (FRL); 9-11 weeks of age; 228-336 g) from the colony maintained at (TNU), Aarhus University (originally derived from the colony at the University of North Carolina, USA) were housed in pairs (Cage 1291H Eurostandard Type III H, 425×266×185 mm, Techniplast, Buguggiate, Italy) at 20±2° C. on a 12-h light/dark cycle (lights on at 07:00 am). The animals had ad libitum access to chow pellets and tap water. The animal colony was protected from outside noise, and all experimental procedures were performed in specially equipped rooms within the vivarium. […]
The following groups were included in the experiment: FRL-vehicle (n=10), FSL-vehicle (n=10), FSL-ketamine (15 mg/kg S-ketamine, Pfizer) (n=8), and FSL-compound 8 (1.5 mg/kg) (n=10). […] A camera, located directly above the center of the field, recorded the session and the total distance moved was quantified using EthoVision XT video tracking software (version 11.0.928; Noldus Information Technology, Wageningen, The Netherlands).
The rat was placed in an acrylic plastic cylinder (60 cm in height, 24 cm in diameter) containing 40 cm of water (25±1° C.) for 7 min. A camera, located directly in front of the cylinder, recorded the session. […]

[10] = IP assay, duplicate determinations, read-out: 5-HT2C EC50

Sequence of a2B (P18089 whole entry, looked up): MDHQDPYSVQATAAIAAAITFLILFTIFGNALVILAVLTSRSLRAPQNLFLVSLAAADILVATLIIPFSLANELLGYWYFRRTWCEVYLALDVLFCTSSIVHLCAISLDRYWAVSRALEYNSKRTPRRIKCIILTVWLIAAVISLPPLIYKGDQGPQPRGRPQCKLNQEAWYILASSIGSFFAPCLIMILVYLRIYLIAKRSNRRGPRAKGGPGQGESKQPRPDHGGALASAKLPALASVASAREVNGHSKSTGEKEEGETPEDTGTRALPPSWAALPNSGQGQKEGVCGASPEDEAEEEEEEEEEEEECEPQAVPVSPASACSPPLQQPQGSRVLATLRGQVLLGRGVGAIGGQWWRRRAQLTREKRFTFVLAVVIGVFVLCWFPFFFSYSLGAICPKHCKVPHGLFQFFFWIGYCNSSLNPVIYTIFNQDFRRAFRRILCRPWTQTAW
Sequence of a1A (P35348 whole entry, looked up): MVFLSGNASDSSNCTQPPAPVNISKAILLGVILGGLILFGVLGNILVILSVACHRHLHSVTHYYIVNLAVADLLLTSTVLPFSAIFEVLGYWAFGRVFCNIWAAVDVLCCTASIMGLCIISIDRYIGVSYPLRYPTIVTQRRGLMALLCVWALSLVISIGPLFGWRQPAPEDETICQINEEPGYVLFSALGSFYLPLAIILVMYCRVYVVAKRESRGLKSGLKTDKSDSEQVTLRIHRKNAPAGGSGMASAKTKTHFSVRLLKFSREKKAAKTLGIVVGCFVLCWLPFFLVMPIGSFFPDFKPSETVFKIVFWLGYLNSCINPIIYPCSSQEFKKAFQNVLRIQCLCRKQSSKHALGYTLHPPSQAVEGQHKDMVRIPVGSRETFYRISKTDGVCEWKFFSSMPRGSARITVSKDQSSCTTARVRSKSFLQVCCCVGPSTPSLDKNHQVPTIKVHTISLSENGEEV
Sequence of a2C (P18825 whole entry, looked up): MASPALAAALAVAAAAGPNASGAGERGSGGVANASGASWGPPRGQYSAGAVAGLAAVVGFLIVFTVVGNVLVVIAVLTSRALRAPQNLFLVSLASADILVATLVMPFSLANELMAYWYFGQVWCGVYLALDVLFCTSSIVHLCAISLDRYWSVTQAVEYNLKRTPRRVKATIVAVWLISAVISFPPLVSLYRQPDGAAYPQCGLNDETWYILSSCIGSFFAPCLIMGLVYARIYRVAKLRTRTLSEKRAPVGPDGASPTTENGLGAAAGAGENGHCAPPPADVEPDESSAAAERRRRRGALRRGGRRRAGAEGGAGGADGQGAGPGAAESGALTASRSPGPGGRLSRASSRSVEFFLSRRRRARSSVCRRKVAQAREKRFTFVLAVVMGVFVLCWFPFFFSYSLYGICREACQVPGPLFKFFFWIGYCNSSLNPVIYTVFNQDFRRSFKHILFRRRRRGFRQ
Sequence of 5-HT1e (P28566 whole entry, looked up, species assumed): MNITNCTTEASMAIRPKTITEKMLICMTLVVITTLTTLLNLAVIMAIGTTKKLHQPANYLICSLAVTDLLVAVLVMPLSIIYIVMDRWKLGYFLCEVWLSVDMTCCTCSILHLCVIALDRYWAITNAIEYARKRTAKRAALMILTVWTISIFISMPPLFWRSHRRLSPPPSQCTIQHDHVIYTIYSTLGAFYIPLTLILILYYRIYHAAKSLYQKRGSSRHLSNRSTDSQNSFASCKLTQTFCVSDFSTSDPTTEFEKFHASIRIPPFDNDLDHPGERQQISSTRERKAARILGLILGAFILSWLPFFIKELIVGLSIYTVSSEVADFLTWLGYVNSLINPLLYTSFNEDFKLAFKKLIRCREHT
Sequence of a1B (P35368 whole entry, looked up): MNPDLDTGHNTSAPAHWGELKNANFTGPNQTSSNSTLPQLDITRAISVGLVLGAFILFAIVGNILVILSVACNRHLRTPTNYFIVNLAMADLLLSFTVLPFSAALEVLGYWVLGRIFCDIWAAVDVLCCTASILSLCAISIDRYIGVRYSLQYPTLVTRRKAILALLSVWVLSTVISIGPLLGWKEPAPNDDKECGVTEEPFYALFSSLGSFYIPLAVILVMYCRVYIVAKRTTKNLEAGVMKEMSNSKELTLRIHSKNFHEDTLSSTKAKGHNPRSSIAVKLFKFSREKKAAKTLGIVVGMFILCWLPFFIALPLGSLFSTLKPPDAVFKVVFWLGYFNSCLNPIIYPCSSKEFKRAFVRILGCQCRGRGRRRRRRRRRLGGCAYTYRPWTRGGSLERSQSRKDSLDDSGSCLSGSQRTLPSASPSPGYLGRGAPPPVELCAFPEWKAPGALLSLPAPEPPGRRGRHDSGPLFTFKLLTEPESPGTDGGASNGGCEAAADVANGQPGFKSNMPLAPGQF
Sequence of 5-HT1D (P28221 whole entry, looked up, species assumed): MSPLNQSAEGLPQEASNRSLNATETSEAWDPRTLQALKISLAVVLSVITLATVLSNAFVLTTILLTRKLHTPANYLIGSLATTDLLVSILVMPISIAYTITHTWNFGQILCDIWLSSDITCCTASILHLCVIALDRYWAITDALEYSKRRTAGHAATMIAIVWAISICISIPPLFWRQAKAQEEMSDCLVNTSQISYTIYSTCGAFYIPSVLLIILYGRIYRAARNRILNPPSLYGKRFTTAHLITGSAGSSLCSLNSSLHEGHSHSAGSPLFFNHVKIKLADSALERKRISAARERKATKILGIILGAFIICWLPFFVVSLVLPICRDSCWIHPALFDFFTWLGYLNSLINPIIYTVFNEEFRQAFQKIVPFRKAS
Sequence of 5-HT7 (P34969 whole entry, looked up, species assumed): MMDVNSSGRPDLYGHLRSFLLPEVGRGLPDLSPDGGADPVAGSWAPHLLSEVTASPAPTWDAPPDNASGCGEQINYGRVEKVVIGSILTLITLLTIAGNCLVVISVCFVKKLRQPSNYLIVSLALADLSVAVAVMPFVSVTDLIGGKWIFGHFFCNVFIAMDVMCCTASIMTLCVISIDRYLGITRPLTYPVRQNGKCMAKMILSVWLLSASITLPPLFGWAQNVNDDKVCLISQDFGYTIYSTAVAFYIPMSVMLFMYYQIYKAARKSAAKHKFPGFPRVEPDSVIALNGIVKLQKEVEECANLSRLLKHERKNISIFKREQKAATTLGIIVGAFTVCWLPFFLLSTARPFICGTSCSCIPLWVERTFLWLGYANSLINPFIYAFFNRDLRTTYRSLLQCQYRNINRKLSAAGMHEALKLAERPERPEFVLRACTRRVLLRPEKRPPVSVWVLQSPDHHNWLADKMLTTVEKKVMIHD
Sequence of a2A (P08913 whole entry, looked up): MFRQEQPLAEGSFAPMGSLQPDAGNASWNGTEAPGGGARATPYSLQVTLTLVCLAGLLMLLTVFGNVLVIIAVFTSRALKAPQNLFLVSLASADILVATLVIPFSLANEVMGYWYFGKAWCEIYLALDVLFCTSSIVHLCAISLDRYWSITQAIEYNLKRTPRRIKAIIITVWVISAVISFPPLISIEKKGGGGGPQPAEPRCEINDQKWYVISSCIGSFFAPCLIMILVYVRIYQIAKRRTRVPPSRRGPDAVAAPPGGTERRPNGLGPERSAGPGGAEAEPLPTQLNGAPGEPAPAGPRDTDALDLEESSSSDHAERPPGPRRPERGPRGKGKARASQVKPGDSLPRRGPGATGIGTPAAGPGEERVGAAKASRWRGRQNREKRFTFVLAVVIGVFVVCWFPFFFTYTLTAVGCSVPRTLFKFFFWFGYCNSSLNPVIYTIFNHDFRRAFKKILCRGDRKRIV

| SMILES | EC50 (5-HT2C [1]) | 5-HT2C Rmax (%) (5-HT2C [1]; IP assay) | EC50 (5-HT2C [2]; read-out: 5-HT2C EC50) | 5-HT2A Rmax ± S.E.M (human 5-HT2A [3]) | 5-HT2A Rmax (human 5-HT2A [5]) | agonist response at 5-HT2A (human 5-HT2A [3]) | 5-HT2A-over-5-HT2C selectivity in terms of binding affinity (5-HT2A over 5-HT2C) | agonist response at 5-HT2A (human 5-HT2A [5]) | EC50 (human 5-HT2A [5]) | EC50 (5-HT2B [8]; read-out: 5-HT2B EC50) | EC50 (5-HT2C [1]; [10]) | 5-HT2B Rmax (5-HT2B [8]) | Selectivity EC50 5-HT2C/EC50 5-HT2A (5-HT2C [1]; IP assay) | other results |
| --- | --- | --- | --- | --- | --- | --- | --- | --- | --- | --- | --- | --- | --- | --- |
| COc1cc(CCNCc2ccccc2O)c(OC)cc1C#N [Compound 25CN-NBOH, 4-(2-((2-hydroxybenzyl)amino)ethyl)-2,5-dimethoxybenzonitrile] | 27 nM | 84% |  |  |  |  |  |  |  |  |  |  |  |  |
| COc1cc(C(F)(F)F)c(OC)cc1[C@@H]1CCCNC1.Cl [Compound 8, (S)-3-(2,5-Dimethoxy-4-(trifluoromethyl)phenyl)piperidine hydrochloride] |  |  | > 50000 nM | 47 ± 3% | 74% |  |  |  |  |  |  |  |  | Ki (5-HT2B [4]): 85 nM; Ki (a2A): 1400 nM; Ki (5-HT7): 2360 nM; Ki (a2B): 820 nM; Ki (5-HT1e): 762 nM; 5-HT2B Rmax (5-HT2B [6]; % of the Rmax of 5-HT): 84%; EC50 (5-HT2B [6]; agonist potency): 280 nM; Ki (5-HT1A): 330 nM; Ki (5-HT1D): 663 nM; Ki (a1A): > 10000 nM; Ki (a2C): > 10000 nM; Ki (a1B): > 10000 nM; Ki (5-HT2C [7]): 42 nM; Ki (5-HT6): 623 nM |
| COc1cc([C@H]2CC[C@H](c3ccccc3OC)NC2)c(OC)cc1Br [Compound 8b, reference compound] |  |  |  |  |  | no agonist response | 27 fold | no agonist response | > 100000 nM | > 100000 nM | > 100000 nM |  |  | 5-HT2C agonist activity (n.a./w.a.) (5-HT2C [2]; tested up to 50 μM): w.a. [@ 10-50 μM]; 5-HT2A agonist activity (n.a./w.a.) (human 5-HT2A [3]; tested up to 50 μM): w.a. [@ 10-50 μM]; 5-HT2A agonist activity (n.a./w.a.) (human 5-HT2A [5]; up to 100 μM (Table 4)): n.a. (no agonist activity: the compound did not evoke significant responses at concentrations up to 100 μM); 5-HT2B agonist activity (n.a./w.a.) (5-HT2B [8]; up to 100 μM (Table 4)): n.a. (no agonist activity: the compound did not evoke significant responses at concentrations up to 100 μM); 5-HT2C agonist activity (n.a./w.a.) (5-HT2C [1]; IP assay, up to 100 μM (Table 4)): w.a. |
| COc1cc(C2CC[C@@H](c3ccccc3OC)NC2)c(OC)cc1Br (some centres unmarked) [Compound 8a, reference compound] |  | 80% | 2000 nM | 87 ± 4% | 94% | evoked significant agonist responses | 13 fold | evoked significant agonist responses | 2300 nM | 770 nM | 170 nM | 20% | 0.07 | 5-HT2C Rmax ± S.E.M (5-HT2C [2]; % of the Rmax of 5-HT): 82 ± 3%; EC50 (5-HT2C [2]; read-out: 5-HT2C [pEC50 ± S.E.M.] (converted)): 1950 nM; Selectivity EC50 5-HT2C/EC50 5-HT2A (human 5-HT2A [3]): 4.1; Selectivity EC50 5-HT2C/EC50 5-HT2A (human 5-HT2A [3]; listed as compound 8a): only slight selectivity towards 5-HT2A over 5-HT2C; EC50 (human 5-HT2A [3]; agonist potency, n = 3-4, read-out: 5-HT2A EC50): 480 nM; Selectivity EC50 5-HT2C/EC50 5-HT2A (5-HT2C [1]; IP assay, listed as compound 8a): selectivity towards 5-HT2C and 5-HT2B over 5-HT2A |
| COc1cc(C(F)(F)F)c(OC)cc1CCN [Compound 2C-TFM, 4-trifluoromethyl-2,5-dimethoxyphenethylamine, reference compound] | 3.8 nM | 100% |  |  | 78% |  |  |  | 7.1 nM |  |  | 81% | 0.53 | EC50 (5-HT2B [8]; 5-HT2B EC50 (nM)): 81 nM |
| CN[C@]1(c2ccccc2Cl)CCCCC1=O [(S)-ketamine] |  |  |  |  |  |  |  |  |  |  |  |  |  | immobility time in the forced swim test [9]: reduce the immobility time |

— patent US11642336B2, “5-HT2A agonists for use in treatment of depression” (priority 2019, dated 2023)
